Data published in publication PMC10788528 (The Journal of Biological Chemistry, 2023).
Entries after “also recorded” stand apart in the source; their conditions may differ.

Tests used:
[1] = target: T1, Sm.TRPMMCLZ (Schistosoma mansoni, UniProt A0A5K4FCC0); assay: Ca2+ reporter assay; type: cell-based; details: for Activator screen at Sm.TRPMMCLZ: 10 μM; for Antagonism of (S)-MCLZ (1 μM) action at Sm.TRPMMCLZ: 100 μM, preincubation 5 min
T1 sequence (A0A5K4FCC0 1-1380): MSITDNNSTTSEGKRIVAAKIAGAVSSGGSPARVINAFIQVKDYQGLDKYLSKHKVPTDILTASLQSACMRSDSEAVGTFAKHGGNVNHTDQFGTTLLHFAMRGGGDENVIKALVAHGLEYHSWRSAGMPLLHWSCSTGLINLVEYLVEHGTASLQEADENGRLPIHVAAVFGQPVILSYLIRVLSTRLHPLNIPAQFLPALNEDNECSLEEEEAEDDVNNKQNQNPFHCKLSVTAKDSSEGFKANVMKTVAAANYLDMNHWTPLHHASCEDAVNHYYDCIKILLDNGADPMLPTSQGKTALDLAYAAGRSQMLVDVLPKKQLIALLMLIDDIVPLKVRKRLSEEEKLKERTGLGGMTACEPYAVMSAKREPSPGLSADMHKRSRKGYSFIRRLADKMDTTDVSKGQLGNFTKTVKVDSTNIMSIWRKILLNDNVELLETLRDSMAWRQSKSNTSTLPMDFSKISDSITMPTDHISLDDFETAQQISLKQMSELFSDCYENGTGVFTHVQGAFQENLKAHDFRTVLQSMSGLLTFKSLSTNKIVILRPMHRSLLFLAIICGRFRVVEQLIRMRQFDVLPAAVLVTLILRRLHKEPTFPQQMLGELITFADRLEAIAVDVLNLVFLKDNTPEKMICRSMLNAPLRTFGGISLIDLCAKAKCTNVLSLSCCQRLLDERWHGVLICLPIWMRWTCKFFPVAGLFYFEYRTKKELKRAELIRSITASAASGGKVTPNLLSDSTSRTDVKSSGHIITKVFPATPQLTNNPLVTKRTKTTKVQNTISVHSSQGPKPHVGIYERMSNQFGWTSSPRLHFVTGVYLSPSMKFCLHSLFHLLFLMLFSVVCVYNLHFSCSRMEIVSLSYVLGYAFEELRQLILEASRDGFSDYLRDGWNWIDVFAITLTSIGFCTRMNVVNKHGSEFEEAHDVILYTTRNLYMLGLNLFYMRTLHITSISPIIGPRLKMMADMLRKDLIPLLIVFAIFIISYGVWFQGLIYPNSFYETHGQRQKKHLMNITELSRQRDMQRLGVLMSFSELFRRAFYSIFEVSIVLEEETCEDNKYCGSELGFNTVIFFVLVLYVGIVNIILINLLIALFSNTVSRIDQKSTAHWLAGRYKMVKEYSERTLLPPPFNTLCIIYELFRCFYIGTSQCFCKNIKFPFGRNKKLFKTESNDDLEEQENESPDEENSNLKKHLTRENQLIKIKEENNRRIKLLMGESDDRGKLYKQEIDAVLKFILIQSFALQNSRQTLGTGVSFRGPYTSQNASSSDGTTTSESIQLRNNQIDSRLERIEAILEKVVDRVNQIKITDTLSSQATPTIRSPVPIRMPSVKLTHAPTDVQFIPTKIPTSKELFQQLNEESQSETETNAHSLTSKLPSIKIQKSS

[2] = system: S. mansoni male worms; assay: Acute contraction of S. mansoni male worms by benzodiazepines; type: cell-based, Schistosoma mansoni; details: 3 μM, 20 min
[3] = target: Sm.TRPMPZQ (Schistosoma mansoni, UniProt A0A5K4F0X5); assay: Ca2+ reporter assay; type: cell-based; details: Fig. S2 concentration-response

Compound	Activator screen at Sm.TRPMMCLZ [1]	Antagonism of (S)-MCLZ (1 μM) action at Sm.TRPMMCLZ [1]	other results
C[N+](C)(C)CCOC(N)=O [carbachol]	inactive	–	–
CN1C(=O)CN=C(c2ccccc2)c2cc(Cl)ccc21 [diazepam]	–	–	Acute contraction / paralysis of S. mansoni male worms [2]: did not evoke worm contraction
NCCc1ccc(O)c(O)c1 [dopamine]	inactive	–	–
CCOC(=O)c1ncn2c1CN(C)C(=O)c1cc(F)ccc1-2 [flumazenil]	–	weakly antagonized	–
CN1C(=O)CN=C(c2ccccc2F)c2cc([N+](=O)[O-])ccc21 [flunitrazepam]	–	–	Acute contraction / paralysis of S. mansoni male worms [2]: did not evoke worm contraction
CCN(CC)CCN1C(=O)CN=C(c2ccccc2F)c2cc(Cl)ccc21 [flurazepam]	–	–	Acute contraction / paralysis of S. mansoni male worms [2]: did not evoke worm contraction
O=C1NC(c2cccc([N+](=O)[O-])c2)=CCN1c1ccccc1O [icilin]	inactive	–	–
CC1CCC(C(C)C)C(O)C1 (stereo not shown) [menthol]	inactive	–	–
COc1ccc(CCN(C)CCCC(C#N)(c2cc(OC)c(OC)c(OC)c2)C(C)C)cc1OC (stereo not shown) [methoxyverapamil]	–	weakly antagonized	–
COC(=O)C1=C(C)NC(C)=C(C(=O)OCCN(C)Cc2ccccc2)C1c1cccc([N+](=O)[O-])c1 (stereo not shown) [nicardipine]	–	weakly antagonized; also recorded: weakly attenuated	–
COC(=O)C1=C(C)NC(C)=C(C(=O)OC)C1c1ccccc1[N+](=O)[O-] [nifedipine]	–	weakly antagonized; also recorded: weakly attenuated	–
COCCOC(=O)C1=C(C)NC(C)=C(C(=O)OC(C)C)C1c1cccc([N+](=O)[O-])c1 (stereo not shown) [nimodipine]	activated	–	Activation of Sm.TRPMPZQ by Cav channel ligands [3]: but not Sm.TRPMPZQ
